The record followed here is patent publication US8716472B2, “Tripodal cyclohexane derivatives and their use as carbohydrate receptors” (University of Rochester, priority 2006, dated 2014).

Data set [1] in a line: Fluorescence titration of n-octyl monosaccharides with receptor. The format is binding. Particulars: 298° K. As to the method:
(§1) The binding affinity of Compound 12 towards a set of octylglycosides (FIG. 15) was measured using ^1H NMR titrations in CDCl3 and UV titrations in chloroform and methanol.
(§2) The same titration protocol employed in Example 7 was also employed in this Example (methanol at 298° K; duplicate titrations).
(§3) Fluorescence titrations of 7 with the set of octylglycosides (FIG. 15) in methanol were performed to study the effect of substitution of 4-methylquinoline instead of 4-cyanopyridine on the binding affinity and selectivity of Compound 12. […] The stoichiometry of binding between Compound 7 and n-octyl-α-D-glucopyranoside was determined by Job plot to be 1:1 (FIG. 12).

Data set [2] in a line: Fluorescence titration, octanol control. The format is binding. Particulars: 298° K. As for the experimental part: as §1, §2, §3
A short description of data set [3]: 1D 1H NMR titration of receptor with octyl pyranoside. The format is binding. The note with it: n-octyl-β-D-glucopyranoside; CDCl3, 298° K; receptor 1 mM. As to the method:
The binding affinity of Compound 11 to octyl pyranosides was tested using 1D ^1H NMR titrations in dry and deacidified CDCl3 at 298° K. The Compound 11 in fixed concentration (1 mM) was titrated with increasing amount of n-octyl-β-D-glucopyranoside and the change in the amide proton resonance of Compound 11 was monitored (FIG. 5A).

Data set [4] can be described thus: UV-Vis titration of n-octyl monosaccharides with receptor. Type of data set: binding. The note with it: for Ka in chloroform / Ka in methanol: 298° K. As for the experimental part:
as §1
(§4) To derive quantitative binding information, UV-Vis titrations were performed. The receptor at fixed concentration was titrated with the octylglycosides in dry and deacidified chloroform or methanol (298° K). Each titration was performed in duplicate to verify results.

A short description of data set [5]: UV-Vis titration, octanol control. The format is binding. Particulars: 298° K. As to the method: as §1, §4
Data set [6] in a line: 1H NMR reverse titration (receptor into the sugar) and Job plot. Type of data set: binding. Particulars: CDCl3, n-octyl-β-D-glucopyranoside. As to the method: as §1
A reverse titration format (receptor into the sugar) was employed for estimating binding by ^1H NMR titrations in order to avoid the complications caused due to micelles formation by octylglycosides at higher concentrations (Vacca et al., J. Am. Chem. Soc. 126:16456-16465 (2004), which is hereby incorporated by reference in its entirety). […] Job plot analysis (as modified for NMR) (Fokkens et al., Chem. Eur. J. 11:477-494 (2005), which is hereby incorporated by reference in its entirety) verified a 1:1 association between Compound 12 and n-octyl-β-D-glucopyranoside (FIG. 9B).

Where [7] appears, read: n-octyl β-D-galacto pyranoside, UV-Vis.

Entries after “also recorded” stand apart in the source; their conditions may differ. Bounds are passed on as bounds.

Molecule `c1cc(C2CC(c3ccncn3)CC(c3ccncn3)C2)ncn1` (stereo not drawn) [Compound 3, 4,4′,4″-cyclohexane-1,3,5-triyltripyrimidine] displayed a melting point of 126 to 128 °C.

As for `Cc1cc(C2CC(c3cc(C)c4ccccc4n3)CC(c3cc(C)c4ccccc4n3)C2)nc2ccccc12` (stereo not drawn) [Compound 7, 2,2,2″-cyclohexane-1,3,5-triyltri(4-methylquinoline)], the Ka in methanol in data set [1] (n-octyl α-D-galacto pyranoside) is 6,600 ± 200 M^−1; in data set [1] (n-octyl α-D-gluco pyranoside), 14,900±1700 M^−1; in data set [1] (n-octyl α-D-manno pyranoside) it was 2600 ± 200 M⁻¹; in data set [1] (n-octyl β-D-galacto pyranoside) it was 3,200 ± 80 M^−1; in data set [1] (n-octyl β-D-gluco pyranoside) it was 9,200 ± 600 M^−1; in data set [1] (n-octyl β-D-manno pyranoside) it was above 400 M⁻¹. Besides, the Ka in methanol result in data set [2] is given as “(no binding)”.

For the molecule `Cc1cccc(NC(=O)[C@H]2C[C@@H](C(=O)Nc3cccc(C)n3)C[C@@H](C(=O)Nc3cccc(C)n3)C2)n1` [Compound 11, cis-cyclohexane-1,3,5-tricarboxylic acid tris-[(6-methyl-pyridin-2-yl)-amide]], the “Ka (measured affinity, NMR titration)” value in data set [3] was determined as 91 M⁻¹.

Take `N#Cc1ccnc(C2CC(c3cc(C#N)ccn3)CC(c3cnccc3C#N)C2)c1` (stereo not drawn) [Compound 14, 2,2′,3′-cyclohexane-1,3,5-triyltri(4-cyanopyridinyl)]: in data set [4] (n-octyl α-D-gluco pyranoside), the Ka in chloroform result is reported as “no affinity”.

Regarding `N#Cc1ccnc(C2CC(c3cc(C#N)ccn3)CC(c3cc(C#N)ccn3)C2)c1` (stereo not drawn) [Compound 12, 2,2′,2″-cyclohexane-1,3,5-triyltri(4-cyanopyridinyl)], the Ka in chloroform entry is “No binding; also recorded: (no binding)” in data set [5]; 17,600 ± 100 M^−1 in data set [4] (n-octyl α-D-galacto pyranoside); 183,000±4,200 M^−1 in data set [4] (n-octyl α-D-gluco pyranoside); 6,700 ± 700 M^−1 in data set [4] (n-octyl α-D-manno pyranoside); 9,800 ± 100 M^−1 in data set [4] (setting [7]); 25,000 ± 600 M^−1 in data set [4] (n-octyl β-D-gluco pyranoside). In addition, the Ka in chloroform result in data set [4] (n-octyl β-D-manno pyranoside) is reported as “did not reach saturation up to the limit of the titration; also recorded: (not saturable)”. Also, in data set [6], the “changes in carbohydrate hydroxyl chemical shifts on titration into the sugar” value was “clearly visible”. The “affinity for n-octyl-β-D-galactopyranoside relative to the β-D-glucopyranoside” value in data set [4] (UV-Vis titration) is recorded as “roughly half”. For the same molecule, the Ka in methanol is listed as 9,200 ± 1,100 M^−1 in data set [4] (n-octyl α-D-galacto pyranoside); 52,000 ± 2,700 M^−1 in data set [4] (n-octyl α-D-gluco pyranoside); >1,200 M^−1 in data set [4] (n-octyl α-D-manno pyranoside); 7,200 ± 1,700 M^−1 in data set [4] (setting [7]); 11,100 ± 600 M^−1 in data set [4] (n-octyl β-D-gluco pyranoside); “(not saturable)” in data set [4] (n-octyl β-D-manno pyranoside).

For the molecule `c1cnc(C2CC(c3cnccn3)CC(c3cnccn3)C2)cn1` (stereo not drawn) [Compound 2, 2,2′,2″-cyclohexane-1,3,5-triyltripyrazine], the melting point was in the range of 122 to 124 °C.

As for `N#Cc1ccncc1` [4-cyanopyridine, reference compound], the “changes in carbohydrate hydroxyl chemical shifts on titration into the sugar” value in data set [6] is “no chemical shift changes were observed”.

One may read the melting point as the temperature, or range, at which the solid turns liquid.
